Data published in US20220061324A1, “PESTICIDALLY ACTIVE HETEROCYCLIC DERIVATIVES WITH SULFUR CONTAINING SUBSTITUENTS” (SYNGENTA CROP PROTECTION AG, priority 2018, published 2022).

Columns and labels:
[1] = test system: Bemisia tabaci (Cotton White Fly); test: Activity against Bemisia tabaci (cotton white fly), cotton leaf discs; assay type: in vivo; conditions: foliar, 144 h, application rate 200 ppm, adult white flies, 6 days after incubation
Method: Example B6: Activity Against Bemisia tabaci (Cotton White Fly)
Cotton leaf discs were placed on agar in 24-well microtiter plates and sprayed with aqueous test solutions prepared from 10,000 ppm DMSO stock solutions. After drying the leaf discs were infested with adult white flies. The samples were checked for mortality 6 days after incubation.

[2] = test system: Diabrotica balteata (Corn Root Worm); test: Activity against Diabrotica balteata (corn root worm), maize sprouts sprayed; assay type: in vivo; conditions: 96 h, application rate 200 ppm, L2 larvae, 4 days after infestation, read-out: effect in at least one of the two categories (mortality or growth inhibition)
Method: Example B1: Activity Against Diabrotica balteata (Corn Root Worm)
Maize sprouts placed onto an agar layer in 24-well microtiter plates were treated with aqueous test solutions prepared from 10,000 ppm DMSO stock solutions by spraying. After drying, the plates were infested with L2 larvae (6 to 10 per well). The samples were assessed for mortality and growth inhibition in comparison to untreated samples 4 days after infestation.

[3] = test system: Spodoptera littoralis (Egyptian Cotton Leaf Worm); test: Activity against Spodoptera littoralis (Egyptian cotton leaf worm), cotton leaf discs; assay type: in vivo; conditions: foliar, 72 h, application rate 200 ppm, L1 larvae, 3 days after infestation, read-out: control (mortality, anti-feedant effect or growth inhibition)
Method: Example B5: Activity Against Spodoptera littoralis (Egyptian Cotton Leaf Worm)
Cotton leaf discs were placed onto agar in 24-well microtiter plates and sprayed with aqueous test solutions prepared from 10,000 ppm DMSO stock solutions. After drying the leaf discs were infested with five L1 larvae. The samples were assessed for mortality, anti-feeding effect, and growth inhibition in comparison to untreated samples 3 days after infestation. Control of Spodoptera littoralis by a test sample is given when at least one of the categories mortality, anti-feedant effect, and growth inhibition is higher than the untreated sample.

[4] = test system: Plutella xylostella (Diamond Back Moth); test: Activity against Plutella xylostella (diamond back moth), artificial diet; assay type: in vivo; conditions: 192 h, application rate 200 ppm, eggs, 8 days after infestation, read-out: effect in at least one of the two categories (mortality or growth inhibition)
Method: Example B3: Activity Against Plutella xylostella (Diamond Back Moth)
24-well microtiter plates with artificial diet were treated with aqueous test solutions prepared from 10,000 ppm DMSO stock solutions by pipetting. After drying, Plutella eggs were pipetted through a plastic stencil onto a gel blotting paper and the plate was closed with it. The samples were assessed for mortality and growth inhibition in comparison to untreated samples 8 days after infestation.

[5] = test system: Myzus persicae (Green Peach Aphid); test: Activity against Myzus persicae (green peach aphid), feeding/contact activity; assay type: in vivo; conditions: 144 h, application rate 200 ppm, feeding/contact, mixed ages, 6 days after infestation, read-out: mortality
Method: Example B4: Activity Against Myzus persicae (Green Peach Aphid) Feeding/Contact Activity
Sunflower leaf discs were placed onto agar in a 24-well microtiter plate and sprayed with aqueous test solutions prepared from 10,000 ppm DMSO stock solutions. After drying, the leaf discs were infested with an aphid population of mixed ages. The samples were assessed for mortality 6 days after infestation.

[6] = test system: Frankliniella occidentalis (Western Flower Thrips); test: Activity against Frankliniella occidentalis (western flower thrips), sunflower leaf discs; assay type: in vivo; conditions: foliar, 168 h, application rate 200 ppm, mixed ages, 7 days after infestation
Method: Example B7: Activity Against Frankliniella occidentalis (Western Flower Thrips)
Sunflower leaf discs were placed on agar in 24-well microtiter plates and sprayed with aqueous test solutions prepared from 10,000 DMSO stock solutions. After drying the leaf discs were infested with a Frankliniella population of mixed ages. The samples were assessed for mortality 7 days after infestation.

[7] = test system: Euschistus heros (Neotropical Brown Stink Bug); test: Activity against Euschistus heros (neotropical brown stink bug), soybean leaves sprayed; assay type: in vivo; conditions: 120 h, application rate 200 ppm, N2 nymphs, 5 days after infestation, read-out: effect in at least one of the two categories (mortality or growth inhibition)
Method: Example B2: Activity Against Euschistus heros (Neotropical Brown Stink Bug)
Soybean leaves on agar in 24-well microtiter plates were sprayed with aqueous test solutions prepared from 10,000 ppm DMSO stock solutions. After drying the leaves were infested with N2 nymphs. The samples were assessed for mortality and growth inhibition in comparison to untreated samples 5 days after infestation.

[8] = test system: Myzus persicae (Green Peach Aphid); test: Activity against Myzus persicae (green peach aphid), systemic activity, pea seedlings; assay type: in vivo; conditions: 144 h, test rate 24 ppm, roots in test solution, 6 days
Method: Example B8: Activity Against Myzus persicae (Green Peach Aphid) Systemic Activity
Roots of pea seedlings infested with an aphid population of mixed ages were placed directly into aqueous test solutions prepared from 10,000 DMSO stock solutions. The samples were assessed for mortality 6 days after placing seedlings into test solutions.

melting point [°C] | Structure (SMILES) | mortality at 200 ppm [1] [%] | percent effect (mortality or growth inhibition) at 200 ppm [2] [%] | percent control (mortality, anti-feedant effect or growth inhibition) at 200 ppm [3] [%] | percent effect (mortality or growth inhibition) at 200 ppm [4] [%] | mortality at 200 ppm [5] [%] | mortality at 200 ppm [6] [%] | percent effect (mortality or growth inhibition) at 200 ppm [7] [%] | mortality at 24 ppm [8] [%]
140 to 143 | CCS(=O)(=O)c1ccc(Cl)nc1-c1ncc2c(OCC(F)(F)C(F)(F)F)nccn12 | – | – | – | – | – | – | – | –
– | CCS(=N)(=O)c1cc(OC(C)(C)C#N)cnc1-c1ncc2c(OCC(F)(F)C(F)(F)F)nccn12 (stereo not shown) [Compound P52, 2-[[5-(ethylsulfonimidoyl)-6-[8-(2,2,3,3,3-penta-fluoropropoxy)imidazo [1,5-a]pyrazin-3-yl]-3-pyridyl]oxy]-2-methyl-propanenitrile] | ≥ 80 | ≥ 80 | ≥ 80 | ≥ 80 | ≥ 80 | – | – | –
– | CCS(=O)(=O)c1cc(OC(C)(C)C#N)cnc1-c1ncc2c(OCC(F)(F)C(F)(F)F)nccn12 [Compound P51, 2-[[5-ethylsulfonyl-6-[8-(2,2,3,3,3-pentafluoropropoxy)imidazo [1,5-a]pyrazin-3-yl]-3-pyridyl]oxy]-2-methyl-propanenitrile] | ≥ 80 | ≥ 80 | ≥ 80 | ≥ 80 | ≥ 80 | ≥ 80 | ≥ 80 | –
– | CCS(=O)(=O)c1cc(N(C)C(C)=O)cnc1-c1ncc2c(OCC(F)(F)C(F)(F)F)nccn12 [Compound P13, N-[5-ethylsulfonyl-6-[8-(2,2,3,3,3-penta-fluoropropoxy)imidazo [1,5-a]pyrazin-3-yl]-3-pyridyl]-N-methyl-acetamide] | – | ≥ 80 | ≥ 80 | ≥ 80 | ≥ 80 | – | ≥ 80 | ≥ 80
– | CCS(=O)(=O)c1ccc(-n2cncn2)nc1-c1ncc2c(OCC(F)(F)C(F)(F)F)nccn12 [Compound P12, 3-[3-ethylsulfonyl-6-(1,2,4-triazol-1-yl)-2-pyridyl]-8-(2,2,3,3,3-penta-fluoropropoxy)imidazo [1,5-a]pyrazine] | ≥ 80 | ≥ 80 | ≥ 80 | ≥ 80 | ≥ 80 | – | ≥ 80 | –
